Laboratory results: US20190152946A1, “Novel Compounds” (GlaxoSmithKline Intellectual Property Development Limited, priority 2016, published 2019)

Target: T1, AURKA (Homo sapiens, UniProt O14965)
T1 construct: endogenous in cells; host or cells: THP-1
T1 sequence (O14965 1-403): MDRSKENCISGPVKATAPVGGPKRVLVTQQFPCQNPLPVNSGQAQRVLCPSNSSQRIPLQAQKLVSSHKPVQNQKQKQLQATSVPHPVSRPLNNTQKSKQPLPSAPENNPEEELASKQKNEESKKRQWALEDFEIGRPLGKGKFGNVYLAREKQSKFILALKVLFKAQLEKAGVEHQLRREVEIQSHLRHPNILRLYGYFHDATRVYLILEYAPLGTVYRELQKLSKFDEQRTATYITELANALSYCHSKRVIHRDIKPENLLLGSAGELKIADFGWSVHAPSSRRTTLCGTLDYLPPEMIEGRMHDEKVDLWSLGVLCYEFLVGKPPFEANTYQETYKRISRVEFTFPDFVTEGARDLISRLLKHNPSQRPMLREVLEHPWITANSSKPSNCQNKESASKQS
Test: Expression proteomics in THP-1 cells, AURKA level
Assay type: cell-based
Conditions: AURKA protein log2 fold change, 24 h, 1.0 μM
Method: THP-1 cells were seeded at a concentration of 3×10^6 cells in T175 flasks with 60 mL growth medium (RPM11640+10% FBS). […] of a 10× compound solution prepared in growth medium (DMSO), IAP PROTAC) was added and the cells were treated for the indicated time points (6 or 24 h) at 37° C., 5% CO2. For harvesting the cells were collected into falcon tubes on ice, centrifuged and washed twice in cold PBS (Life technologies). After the last washing step the supernatant was removed and the pellets were snap-frozen in liquid N2 and stored at −80° C. and lysed in 2% SDS for 3 min at 95° C. in a thermomixer (Thermo Fisher Scientific), followed by digestion of DNA with Benzonase at 37° C. for 1.5 h. Lysate was cleared by centrifugation an protein concentration in supernatant was determined by BCA assay.
Leukemia 25, 89-100 (2011).
Samples were dried in vacuo and resuspended in 0.05% trifluoroacetic acid in water. […]
Reporter ion intensities were read from raw data and multiplied with ion accumulation times (the unit is milliseconds) so as to yield a measure proportional to the number of ions;
Nat Biotech 29, 255-265 (2011). this measure is referred to as ion area Savitski, M. M. et al. Delayed Fragmentation and Optimized Isolation Width Settings for Improvement of Protein Identification and Accuracy of Isobaric Mass Tag Quantification on Orbitrap-Type Mass Spectrometers. […]

- log2fc_IAP_24 h_1.0 μM_n1 (replicate n1): −1.81
- log2fc_IAP_24 h_1.0 μM_n2 (replicate n2): −1.42
Compound: CNC(=O)c1ccccc1Nc1nc(Nc2ccc(N3CCN(CCOCCOCCOCCOc4ccc5c(c4)CN(C(=O)[C@@H](NC(=O)[C@H](C)NC)C(C)(C)C)[C@H](C(=O)N[C@@H]4CCCc6ccccc64)C5)CC3)cc2)ncc1Cl [IAP, (S)-7-(2-(2-(2-(2-(4-(4-((5-Chloro-4-((2-(methylcarbamoyl)phenyl)amino)pyrimidin-2-yl)amino)phenyl)piperazin-1-yl)ethoxy)ethoxy)ethoxy)ethoxy)-2-((S)-3,3-dimethyl-2-((S)-2-(methylamino)propanamido)butanoyl)-N-((R)-1,2,3,4-tetrahydronaphthalen-1-yl)-1,2,3,4-tetrahydroisoquinoline-3-carboxamide]
